From US20090098130A1, “GLUCAGON-LIKE PROTEIN-1 RECEPTOR (GLP-1R) AGONIST COMPOUNDS” (priority 2007, published 2009)
Non-standard residues stand in square brackets, D forms with d. Residues, ends and D or L forms follow the SMILES beside them. Aib = CC(C)(N)C(=O)O

Assays:
m38C2 = details: competition ELISA against immobilized BSA-conjugated β-diketone 1, read-out: apparent equilibrium dissociation constant; cited from earlier work
h38C2 = details: competition ELISA against immobilized BSA-conjugated β-diketone 1, read-out: apparent equilibrium dissociation constant; cited from earlier work
pancreatic β cells = experiment: glucose-stimulated insulin secretion (GSIS) assay; type: cell-based; details: GA targeting peptide; insulin secretion from pancreatic β cell cultures in vitro with glucose
Procedure: Briefly, glucose and GA targeting peptide was added at various concentrations to pancreatic β cell cultures, and insulin secretion was detected by measuring insulin levels over time. EC50 was calculated for each peptide.
The ability of these GA targeting agent-linker conjugates to stimulate […] secretion in vitro was measured using the GSIS assay described in Example 27. […] Each of these peptides contained a side-chain modified Lys residue according to the scheme illustrated in FIG. 30 at a different position.

SMILES	EC50 (pancreatic β cells) [µM]	Kd (m38C2) [µM]	Kd (h38C2) [µM]
CC(=O)CC(=O)CCc1ccccc1 [β-diketone 3]	–	0.43	1
CC(=O)CC(C)=O [β-diketone 2]	–	38	7.6
CC[C@H](C)[C@H](NC(=O)[C@H](Cc1ccccc1)NC(=O)[C@H](CCC(=O)O)NC(=O)[C@H](CCCCN)NC(=O)[C@H](C)NC(=O)[C@H](C)NC(=O)[C@H](CCC(N)=O)NC(=O)CNC(=O)[C@H](CCC(=O)O)NC(=O)[C@H](CS)NC(=O)[C@H](Cc1ccc(O)cc1)NC(=O)[C@H](CO)NC(=O)[C@H](CO)NC(=O)[C@@H](NC(=O)[C@H](CC(=O)O)NC(=O)[C@H](CO)NC(=O)[C@@H](NC(=O)[C@H](Cc1ccccc1)NC(=O)[C@@H](NC(=O)CNC(=O)[C@H](CCC(=O)O)NC(=O)C(C)(C)NC(=O)[C@@H](N)Cc1c[nH]cn1)[C@@H](C)O)[C@@H](C)O)C(C)C)C(=O)N[C@@H](C)C(=O)N[C@@H](Cc1c[nH]c2ccccc12)C(=O)N[C@@H](CC(C)C)C(=O)N[C@H](C(=O)N[C@@H](CCCCN)C(=O)NC(C)(C)C(=O)N[C@@H](CCCNC(=N)N)C(N)=O)C(C)C [SEQ ID NO: 41] (H-H[Aib]EGTFTSDVSSYCEGQAAKEFIAWLVK[Aib]R-NH2)	< 10	–	–
CC[C@H](C)[C@H](NC(=O)[C@H](Cc1ccccc1)NC(=O)[C@H](CCC(=O)O)NC(=O)[C@H](CCCCN)NC(=O)[C@H](C)NC(=O)[C@H](C)NC(=O)[C@H](CCC(N)=O)NC(=O)CNC(=O)[C@H](CCC(=O)O)NC(=O)[C@H](Cc1c[nH]c2ccccc12)NC(=O)[C@H](Cc1ccc(O)cc1)NC(=O)[C@H](CO)NC(=O)[C@H](CO)NC(=O)[C@@H](NC(=O)[C@H](CC(=O)O)NC(=O)[C@H](CO)NC(=O)[C@@H](NC(=O)[C@H](Cc1ccccc1)NC(=O)[C@@H](NC(=O)CNC(=O)[C@H](CCC(=O)O)NC(=O)C(C)(C)NC(=O)[C@@H](N)Cc1c[nH]cn1)[C@@H](C)O)[C@@H](C)O)C(C)C)C(=O)N[C@@H](C)C(=O)N[C@@H](Cc1c[nH]c2ccccc12)C(=O)N[C@@H](CC(C)C)C(=O)N[C@H](C(=O)N[C@@H](CCCCN)C(=O)NC(C)(C)C(=O)N[C@@H](CCCNC(=N)N)C(N)=O)C(C)C [SEQ ID NO: 44] (H-H[Aib]EGTFTSDVSSYWEGQAAKEFIAWLVK[Aib]R-NH2)	< 10	–	–
CC[C@H](C)[C@H](NC(=O)[C@H](Cc1ccccc1)NC(=O)[C@H](CCC(=O)O)NC(=O)[C@H](CCCCN)NC(=O)[C@H](C)NC(=O)[C@H](C)NC(=O)[C@H](CCC(N)=O)NC(=O)CNC(=O)[C@H](CCC(=O)O)NC(=O)CNC(=O)[C@H](Cc1ccc(O)cc1)NC(=O)[C@H](CO)NC(=O)[C@H](CO)NC(=O)[C@@H](NC(=O)[C@H](CC(=O)O)NC(=O)[C@H](CO)NC(=O)[C@@H](NC(=O)[C@H](Cc1ccccc1)NC(=O)[C@@H](NC(=O)CNC(=O)[C@H](CCC(=O)O)NC(=O)C(C)(C)NC(=O)[C@@H](N)Cc1c[nH]cn1)[C@@H](C)O)[C@@H](C)O)C(C)C)C(=O)N[C@@H](C)C(=O)N[C@@H](Cc1c[nH]c2ccccc12)C(=O)N[C@@H](CC(C)C)C(=O)N[C@H](C(=O)N[C@@H](CCCCN)C(=O)NC(C)(C)C(=O)N[C@@H](CCCNC(=N)N)C(N)=O)C(C)C [SEQ ID NO: 40] (H-H[Aib]EGTFTSDVSSYGEGQAAKEFIAWLVK[Aib]R-NH2)	< 10	–	–

Second part, led by results:

EC50 (pancreatic β cells) [µM]	SMILES	Kd (m38C2) [µM]	Kd (h38C2) [µM]
< 10	CC[C@H](C)[C@H](NC(=O)[C@H](Cc1ccccc1)NC(=O)[C@H](CCC(=O)O)NC(=O)[C@H](CCCNC(=N)N)NC(=O)[C@@H](NC(=O)[C@H](C)NC(=O)[C@H](CCC(N)=O)NC(=O)[C@H](CCC(=O)O)NC(=O)[C@H](CCC(=O)O)NC(=O)[C@H](CC(C)C)NC(=O)[C@H](Cc1ccc(O)cc1)NC(=O)[C@H](CO)NC(=O)[C@H](CO)NC(=O)[C@@H](NC(=O)[C@H](CC(=O)O)NC(=O)[C@H](CO)NC(=O)[C@@H](NC(=O)[C@H](Cc1ccccc1)NC(=O)[C@@H](NC(=O)CNC(=O)[C@H](CCC(=O)O)NC(=O)C(C)(C)NC(=O)[C@@H](N)Cc1c[nH]cn1)[C@@H](C)O)[C@@H](C)O)C(C)C)C(C)C)C(=O)N[C@@H](C)C(=O)N[C@@H](Cc1c[nH]c2ccccc12)C(=O)N[C@@H](CC(C)C)C(=O)N[C@H](C(=O)N[C@@H](CCCNC(=N)N)C(=O)NC(C)(C)C(=O)N[C@@H](CCCNC(=N)N)C(N)=O)[C@@H](C)CC [SEQ ID NO: 62] (H-H[Aib]EGTFTSDVSSYLEEQAVREFIAWLIR[Aib]R-NH2)	–	–
< 10	CC[C@H](C)[C@H](NC(=O)[C@H](Cc1ccccc1)NC(=O)[C@H](CCC(=O)O)NC(=O)[C@H](CCCCN)NC(=O)[C@H](C)NC(=O)[C@H](C)NC(=O)[C@H](CCC(N)=O)NC(=O)CNC(=O)[C@H](CCC(=O)O)NC(=O)[C@H](CC(C)C)NC(=O)[C@H](Cc1ccc(O)cc1)NC(=O)[C@H](CO)NC(=O)[C@H](CO)NC(=O)[C@@H](NC(=O)[C@H](CC(=O)O)NC(=O)[C@H](CO)NC(=O)[C@@H](NC(=O)[C@H](Cc1ccccc1)NC(=O)[C@@H](NC(=O)CNC(=O)[C@H](CCC(=O)O)NC(=O)C(C)(C)NC(=O)[C@@H](N)Cc1c[nH]cn1)[C@@H](C)O)[C@@H](C)O)C(C)C)C(=O)N[C@@H](C)C(=O)N[C@@H](Cc1c[nH]c2ccccc12)C(=O)N[C@@H](CC(C)C)C(=O)N[C@H](C(=O)N[C@@H](CCCNC(=N)N)C(=O)NC(C)(C)C(=O)N[C@@H](CCCNC(=N)N)C(N)=O)C(C)C [SEQ ID NO: 55]	–	–
< 10	CC[C@H](C)[C@H](NC(=O)[C@H](Cc1ccccc1)NC(=O)[C@H](CCC(=O)O)NC(=O)[C@H](CCCCN)NC(=O)[C@@H](NC(=O)[C@H](C)NC(=O)[C@H](CCC(N)=O)NC(=O)[C@H](CCC(=O)O)NC(=O)[C@H](CCC(=O)O)NC(=O)[C@H](Cc1ccc(O)cc1)NC(=O)[C@H](Cc1ccc(O)cc1)NC(=O)[C@H](CO)NC(=O)[C@H](CO)NC(=O)[C@@H](NC(=O)[C@H](CC(=O)O)NC(=O)[C@H](CO)NC(=O)[C@@H](NC(=O)[C@H](Cc1ccccc1)NC(=O)[C@@H](NC(=O)CNC(=O)[C@H](CCC(=O)O)NC(=O)C(C)(C)NC(=O)[C@@H](N)Cc1c[nH]cn1)[C@@H](C)O)[C@@H](C)O)C(C)C)C(C)C)C(=O)N[C@@H](C)C(=O)N[C@@H](Cc1c[nH]c2ccccc12)C(=O)N[C@@H](CC(C)C)C(=O)N[C@H](C(=O)N[C@@H](CCCCN)C(=O)NC(C)(C)C(=O)N[C@@H](CCCNC(=N)N)C(N)=O)[C@@H](C)CC [SEQ ID NO: 59] (H-H[Aib]EGTFTSDVSSYYEEQAVKEFIAWLIK[Aib]R-NH2)	–	–
< 10	CC[C@H](C)[C@H](NC(=O)[C@H](Cc1ccccc1)NC(=O)[C@H](CCC(=O)O)NC(=O)[C@H](CCCCN)NC(=O)[C@@H](NC(=O)[C@H](C)NC(=O)[C@H](CCC(N)=O)NC(=O)[C@H](CCC(=O)O)NC(=O)[C@H](CCC(=O)O)NC(=O)[C@H](CC(C)C)NC(=O)[C@H](Cc1ccc(O)cc1)NC(=O)[C@H](CO)NC(=O)[C@H](CO)NC(=O)[C@@H](NC(=O)[C@H](CC(=O)O)NC(=O)[C@H](CO)NC(=O)[C@@H](NC(=O)[C@H](Cc1ccccc1)NC(=O)[C@@H](NC(=O)CNC(=O)[C@H](CCC(=O)O)NC(=O)C(C)(C)NC(=O)[C@@H](N)Cc1c[nH]cn1)[C@@H](C)O)[C@@H](C)O)C(C)C)C(C)C)C(=O)N[C@@H](C)C(=O)N[C@@H](Cc1c[nH]c2ccccc12)C(=O)N[C@@H](CC(C)C)C(=O)N[C@H](C(=O)N[C@@H](CCCCN)C(=O)NC(C)(C)C(=O)N[C@@H](CCCNC(=N)N)C(N)=O)[C@@H](C)CC [SEQ ID NO: 57]	–	–
